From patent US6046238A, “Method for treating or preventing the spread of acne vulgaris” (TriStrata, Inc., priority 1999, dated 2000) come the findings set out here.

Converted amounts (≈) assume the structure as drawn. “Also recorded” adds a separate entry of the source. Like-named read-outs stand apart in the source and are kept apart here.

The subject of one assay is Micrococcus luteus. The assay can be described thus: MIC Agar Dilution Test, Micrococcus luteus. The settings on record: M. luteus. The assay is classed as cell-based. An excerpt: (§1) The following strains of microorganisms were used in Minimum Inhibitory Concentration (MIC) tests for phenyl 2-acetoxyethanoic acid in this example and for benzoyl peroxide, chlorhexidine gluconate and triclosan in the following examples. In total, five strains were used for S. aureus, five strains were used for S. epidermidis, two strains were used for M. sedentarius, three strains were used for M. luteus, two strains were used for B. epidermis, three strains were used for C. minutissium, one strain was used for S. marcescens, three strains were used for P. aeruginosa, four strains were used for E. coli, and thirty-two strains were used for P. acnes.
(§2) Antimicrobial effects were determined based on MIC Agar Dilution Test utilizing Trypticase Soy Agar II (BBL) incorporation plates with and without 10% intralipid (Kabi Pharmacia Inc.). Initially, phenyl 2-acetoxyethanoic acid was prepared as a 2 mg/ml (0.2%) solution in water. This solution with serial dilution was incorporated into the test agar plates. The MIC test gave similar results when the same species but a different strain was used.
(§3) Under the same test conditions described in Example 1, benzoyl peroxide was prepared as a 2.5 mg/ml (0.25%) solution in water. This solution with serial dilution was incorporated into the test agar plates. Typical test results are shown as follows.
(§4) Under the same test conditions described in Example 1, chlorhexidine gluconate was prepared as a 2 mg/ml (0.2%) solution in water. This solution with serial dilution was incorporated into the test agar plates. Typical test results are shown as follows.
(§5) Under the same test conditions described in Example 1, triclosan was prepared as a 10 mg/ml (1%) solution in water. This solution with serial dilution was incorporated into the test agar plates. Typical test results are shown as follows.
(§6) Ten different species of bacteria were used in Minimum Inhibitory Concentration (MIC) tests. The bacteria include S. aureus, S. epidermidis,M. sedentarius, M. luteus, B. epidermis, C. minutissium, S. marcescens, P. aeruginosa, E. coli, and P. acnes. In addition various sources and strains of these bacteria were also included in the tests, and up to 32 different strains of P. acnes were used.
(§7) The test substance selected from phenyl 2-acetoxyethanoic acid, benzoyl peroxide, chlorhexidine gluconate and triclosan was dissolved in water, and the solution with serial dilution was incorporated into the test agar plates. The plates containing different concentrations of test substance were inoculated with a strain of bacterium. MIC is defined as the lowest concentration of the test substance in the plate in which there is no growth of the microorganism.
In general terms: Agar dilution tests growth on a series of plates holding different concentrations.

The next assay concerns Escherichia coli. The assay can be described thus: MIC Agar Dilution Test, Escherichia coli. The assay is classed as cell-based. The settings on record: E. coli.
Source text: as §1, §2, §3, §4, §5, §6, §7

The subject of the next assay is Micrococcus sedentarius. The experiment in a line: MIC Agar Dilution Test, Micrococcus sedentarius. The class given is cell-based. The settings on record: Kytococcus sedentarius, M. sedentarius.
Source text: as §1, §2, §3, §4, §5, §6, §7

The subject of assay [1] is Staphylococcus epidermidis. The assay can be described thus: MIC Agar Dilution Test, Staphylococcus epidermidis. The settings on record: S. epidermidis. The assay is classed as cell-based.
Source text: as §1, §2, §3, §4, §5, §6, §7

Assay [2] is described as follows: prophylactic effect in preventing the development of axillary foul odor. The assay is classed as in vivo, human. The settings on record: Example 5; 0.5% solution, topical; one person; up to 24 hours. The protocol: A typical test for prophylactic effect in preventing the development of axillary foul odor was carried out as follows. A test composition was prepared by dissolving 0.5 g of phenyl 2-acetoxyethanoic acid or diphenyl 2-acetoxyethanoic acid in 70 ml of ethanol and 30 ml of propylene glycol. The control vehicle was prepared by mixing 70 ml of ethanol and 30 ml of propylene glycol. A human subject was instructed to take a shower in the morning using ordinary soap to clean the body surfaces. After the skin was dried, the test composition was topically applied to the left underarm area only. The vehicle control was topically applied to the right underarm area. Both underarm areas were monitored by the subject and at least one other person approximately every 8 hours to determine whether the test composition had any prophylactic effect in preventing the development of underarm foul odor in the left axilla as compared to the vehicle alone on the right control armpit.
Presence or substantial absence of foul odor, detected by smell, was adopted as the criteria for ineffectiveness or effectiveness of the test composition.
A total of seven subjects (four females; three males) participated in several studies. Most of these subjects could not use existing commercial products of antiperspirants or deodorants because of severe irritation after topical application. […]

The subject of a further assay is Staphylococcus aureus. The assay can be described thus: MIC Agar Dilution Test, Staphylococcus aureus. The assay is classed as cell-based. The following applies: S. aureus.
Source text: as §1, §2, §3, §4, §5, §6, §7

In assay [3] the test system is ten different species of bacteria. The assay can be described thus: MIC Agar Dilution Test, panel of ten bacteria. The following applies: with or without 10% lipid materials. The class given is cell-based.
Source text: as §1, §2, §3, §4, §5
In order to determine the antimicrobial effect of an aryl 2-acetoxyethanoicacid, a standard test method of Minimum Inhibitory Concentration (MIC) against the growth of 10 bacteria was used. To determine a prophylactic effect against the development of, as well as a topical effect in the treatment of, body foul door, eleven human subjects participated in this study. More than twenty human subjects participated in a study to determine whether the compositions containing an aryl 2-acetoxyethanoic acid were therapeutically effective for topical treatment of folliculitis and other skin lesions, nail infections and mucosal infections caused by microbial infections. Scientific and test results are overviewed as follows.
as §6, §7

A further assay has as its system Serratia marcescens. The experiment in a line: MIC Agar Dilution Test, Serratia marcescens. The following applies: S. marcescens. The assay is classed as cell-based.
Source text: as §1, §2, §3, §4, §5, §6, §7

[4] abbreviates: 10% intralipid, read-out: MIC Lipid.
Setting [5] is: no lipid, read-out: MIC No Lipid.

A word on the MIC: it is the least concentration at which growth counts as inhibited.

For `CC(=O)OC(C(=O)O)c1ccccc1` (stereo not drawn) [phenyl 2-acetoxyethanoic acid], the MIC stood at 1000 µg/mL (≈ 5.15 mM) in the assay on Micrococcus luteus (setting [4]); 1000 µg/mL (≈ 5.15 mM) in the assay with Micrococcus luteus (setting [5]); 1000 µg/mL (≈ 5.15 mM) in the assay on Escherichia coli (setting [4]); 1000 µg/mL (≈ 5.15 mM) in the assay with Escherichia coli (setting [5]); 500 µg/mL (≈ 2.57 mM) with Micrococcus sedentarius (setting [4]); 500 µg/mL (≈ 2.57 mM) in the assay with Micrococcus sedentarius (setting [5]). Also, the MIC in assay [1] (setting [4]) came out at 1000 µg/mL (≈ 5.15 mM); in assay [1] (setting [5]), 1000 µg/mL (≈ 5.15 mM); in the assay with Staphylococcus aureus (setting [4]), 500 µg/mL (≈ 2.57 mM); in the assay on Staphylococcus aureus (setting [5]), 500 µg/mL (≈ 2.57 mM); in the assay with Serratia marcescens (setting [4]), 1000 µg/mL (≈ 5.15 mM); in the assay with Serratia marcescens (setting [5]), 1000 µg/mL (≈ 5.15 mM). Also, the “prevention of axillary foul odor (left underarm)” value in assay [2] is listed as “did not produce any detectable odor, even after 24 hours; also recorded: substantially effective in preventing the development of axillary foul odor”. Besides, the “inhibitory effects against the growth of all ten bacteria” value in assay [3] is “had inhibitory effects against all of the above bacteria”; in assay [3] (listed as Phenyl 2-acetoxyethanoic acid), “showed inhibitory effects against the growth of all ten bacteria tested”.
